From patent US20110039721A1, “METHOD FOR PREDICTION ABOUT CARCINOGENICITY OF SUBSTANCE IN RODENT” (Chemicals Evaluation and Research Institute, priority 2007, published 2011)

How the values were obtained:
[1] = test system: mRNA expressed from the genes (A) to (D) in rat liver; assay: Behavior of genes (mRNA expression level, oligo-DNA microarray) in rat liver after 28-day oral administration; type: in vivo
Outline: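 Male F344 SPF rats, 5 weeks old, four per group, received carcinogens, non-carcinogens or solvent vehicle by oral gavage once daily for 28 days. Liver total RNA was then extracted. Changes of ≥1.5-fold or ≤1/1.5 versus vehicle control, in a consistent direction across carcinogens, counted as significant.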

liver = details: in vivo; cited from earlier work
rodent = details: in vivo; cited from earlier work
[2] = gene group (A), Unigene No. Rn.167075, mRNA vs vehicle control group
[3] = gene group (C), Unigene No. Rn.120914, mRNA vs vehicle control group
[4] = (C), Unigene Rn.120914, defined direction +, rat liver, oral once daily 28 days

For `c1ccc2cc3c(ccc4ccccc43)cc2c1` [TS046, Benz[a]anthracene], the “Behavior of gene caused by administration of chemical substance, Gene No. 4846” value ([1]; gene group (A), Unigene No. Rn.144554, mRNA vs vehicle control group) was “−”, the “Behavior of gene caused by administration of chemical substance, Gene No. 2026” value [1, 2] was “+” and the “Behavior of gene caused by administration of chemical substance, Gene No. 4218” value [1, 2] was “−”. The “Behavior of gene caused by administration of chemical substance, Gene No. 6182” value ([1]; gene group (A), Unigene No. Rn.5834, mRNA vs vehicle control group) was “+”, the “Behavior of gene caused by administration of chemical substance, Gene No. 5600” value ([1]; gene group (A), Unigene No. Rn.9836, mRNA vs vehicle control group) was “−” and the “Behavior of gene caused by administration of chemical substance, Gene No. 1494” value ([1]; gene group (B), Unigene No. Rn.1430, mRNA vs vehicle control group) was “−”. For the same compound, the “Behavior of gene caused by administration of chemical substance, Gene No. 2045” value ([1]; gene group (B), Unigene No. Rn.19329, mRNA vs vehicle control group) was “−”, the “Behavior of gene caused by administration of chemical substance, Gene No. 2203” value ([1]; gene group (B), Unigene No. Rn.21240, mRNA vs vehicle control group) was “+” and the “Behavior of gene caused by administration of chemical substance, Gene No. 533” value ([1]; gene group (C), Unigene No. Rn.106184, mRNA vs vehicle control group) was “−”. For the same compound, the “Behavior of gene caused by administration of chemical substance, Gene No. 725” value ([1]; gene group (C), Unigene No. Rn.108075, mRNA vs vehicle control group) was “+”, the “Behavior of gene caused by administration of chemical substance, Gene No. 1163” value ([1]; gene group (C), Unigene No. Rn.11766, mRNA vs vehicle control group) was “+” and the “Behavior of gene caused by administration of chemical substance, Gene No. 4973” value ([1]; gene group (C), Unigene No. Rn.118529, mRNA vs vehicle control group) was “+”. For the same compound, the “Behavior of gene caused by administration of chemical substance, Gene No. 4095” value ([1]; gene group (C), Unigene No. Rn.119024, mRNA vs vehicle control group) was “+”, the “Behavior of gene caused by administration of chemical substance, Gene No. 1334” value [1, 3] was “−” and the “Behavior of gene caused by administration of chemical substance, Gene No. 6620” value [1, 3] was “−”. The “Behavior of gene caused by administration of chemical substance, Gene No. 6303” value ([1]; gene group (C), Unigene No. Rn.123063, mRNA vs vehicle control group) was “−”, the “Behavior of gene caused by administration of chemical substance, Gene No. 5878” value ([1]; gene group (C), Unigene No. Rn.143213, mRNA vs vehicle control group) was “+” and the “Behavior of gene caused by administration of chemical substance, Gene No. 1131” value ([1]; gene group (C), Unigene No. Rn.144946, mRNA vs vehicle control group) was “+”. The “Behavior of gene caused by administration of chemical substance, Gene No. 1562” value ([1]; gene group (C), Unigene No. Rn.14744, mRNA vs vehicle control group) was “−”, the “Behavior of gene caused by administration of chemical substance, Gene No. 1741” value ([1]; gene group (C), Unigene No. Rn.1647, mRNA vs vehicle control group) was “+” and the “Behavior of gene caused by administration of chemical substance, Gene No. 893” value ([1]; gene group (C), Unigene No. Rn.164817, mRNA vs vehicle control group) was “+”. For the same compound, the “Behavior of gene caused by administration of chemical substance, Gene No. 6026” value ([1]; gene group (C), Unigene No. Rn.167685, mRNA vs vehicle control group) was “−”, the “Behavior of gene caused by administration of chemical substance, Gene No. 154” value ([1]; gene group (C), Unigene No. Rn.185941, mRNA vs vehicle control group) was “+” and the “Behavior of gene caused by administration of chemical substance, Gene No. 1993” value ([1]; gene group (C), Unigene No. Rn.18728, mRNA vs vehicle control group) was “+”. For the same compound, the “Behavior of gene caused by administration of chemical substance, Gene No. 813” value ([1]; gene group (C), Unigene No. Rn.201760, mRNA vs vehicle control group) was “+”, the “Behavior of gene caused by administration of chemical substance, Gene No. 2494” value ([1]; gene group (C), Unigene No. Rn.23969, mRNA vs vehicle control group) was “−” and the “Behavior of gene caused by administration of chemical substance, Gene No. 2546” value ([1]; gene group (C), Unigene No. Rn.24561, mRNA vs vehicle control group) was “+”. For the same compound, the “Behavior of gene caused by administration of chemical substance, Gene No. 3776” value ([1]; gene group (C), Unigene No. Rn.43232, mRNA vs vehicle control group) was “+”, the “Behavior of gene caused by administration of chemical substance, Gene No. 3929” value ([1]; gene group (C), Unigene No. Rn.4620, mRNA vs vehicle control group) was “−” and the “Behavior of gene caused by administration of chemical substance, Gene No. 1119” value ([1]; gene group (C), Unigene No. Rn.9757, mRNA vs vehicle control group) was “+”. For the same compound, the “Behavior of gene caused by administration of chemical substance, Gene No. 6742” value ([1]; gene group (C), Unigene No. Rn.9779, mRNA vs vehicle control group) was “+”, the “Behavior of gene caused by administration of chemical substance, Gene No. 5634” value ([1]; gene group (C), Unigene No. Rn.9862, mRNA vs vehicle control group) was “+” and the “Behavior of gene caused by administration of chemical substance, Gene No. 5726” value ([1]; gene group (D), Unigene No. Rn.9939, mRNA vs vehicle control group) was “+”. For the same compound, the Liver carcinogenicity (liver) was “Cr−” and the Carcinogenicity (rodent) was “C+”.
In the case of `CCOC(N)=O` [TS054, Urethane], the “Behavior of gene caused by administration of chemical substance, Gene No. 4846” value ([1]; (A), Unigene Rn.144554, defined direction +, rat liver, oral once daily 28 days) is reported as “+”, the “Behavior of gene caused by administration of chemical substance, Gene No. 4218” value ([1]; (A), Unigene Rn.167075, defined direction +, rat liver, oral once daily 28 days, significant = 1.5 times or more or 1/1.5 or less of control) is reported as “−” and the “Behavior of gene caused by administration of chemical substance, Gene No. 2026” value ([1]; (A), Unigene Rn.167075, defined direction −, rat liver, oral once daily 28 days) is reported as “−”. For the same compound, the “Behavior of gene caused by administration of chemical substance, Gene No. 6182” value ([1]; (A), Unigene Rn.5834, defined direction +, rat liver, oral once daily 28 days) was “+”, the “Behavior of gene caused by administration of chemical substance, Gene No. 5600” value ([1]; (A), Unigene Rn.9836, defined direction +, rat liver, oral once daily 28 days) was “−” and the “Behavior of gene caused by administration of chemical substance, Gene No. 1494” value ([1]; (B), Unigene Rn.1430, defined direction −, rat liver, oral once daily 28 days) was “−”. The “Behavior of gene caused by administration of chemical substance, Gene No. 2045” value ([1]; (B), Unigene Rn.19329, defined direction +, rat liver, oral once daily 28 days) was “−”, the “Behavior of gene caused by administration of chemical substance, Gene No. 2203” value ([1]; (B), Unigene Rn.21240, defined direction +, rat liver, oral once daily 28 days) was “−” and the “Behavior of gene caused by administration of chemical substance, Gene No. 533” value ([1]; (C), Unigene Rn.106184, defined direction +, rat liver, oral once daily 28 days) was “−”. The “Behavior of gene caused by administration of chemical substance, Gene No. 725” value ([1]; (C), Unigene Rn.108075, defined direction −, rat liver, oral once daily 28 days) was “−”, the “Behavior of gene caused by administration of chemical substance, Gene No. 1163” value ([1]; (C), Unigene Rn.11766, defined direction +, rat liver, oral once daily 28 days) was “−” and the “Behavior of gene caused by administration of chemical substance, Gene No. 4973” value ([1]; (C), Unigene Rn.118529, defined direction −, rat liver, oral once daily 28 days) was “−”. The “Behavior of gene caused by administration of chemical substance, Gene No. 4095” value ([1]; (C), Unigene Rn.119024, defined direction −, rat liver, oral once daily 28 days) was “−”, the “Behavior of gene caused by administration of chemical substance, Gene No. 1334” value [1, 4] was “−” and the “Behavior of gene caused by administration of chemical substance, Gene No. 6620” value [1, 4] was “−”. The “Behavior of gene caused by administration of chemical substance, Gene No. 6303” value ([1]; (C), Unigene Rn.123063, defined direction −, rat liver, oral once daily 28 days) was “−”, the “Behavior of gene caused by administration of chemical substance, Gene No. 5878” value ([1]; (C), Unigene Rn.143213, defined direction −, rat liver, oral once daily 28 days) was “−” and the “Behavior of gene caused by administration of chemical substance, Gene No. 1131” value ([1]; (C), Unigene Rn.144946, defined direction −, rat liver, oral once daily 28 days) was “−”. For the same compound, the “Behavior of gene caused by administration of chemical substance, Gene No. 1562” value ([1]; (C), Unigene Rn.14744, defined direction −, rat liver, oral once daily 28 days) was “−”, the “Behavior of gene caused by administration of chemical substance, Gene No. 1741” value ([1]; (C), Unigene Rn.1647, defined direction −, rat liver, oral once daily 28 days) was “−” and the “Behavior of gene caused by administration of chemical substance, Gene No. 893” value ([1]; (C), Unigene Rn.164817, defined direction +, rat liver, oral once daily 28 days) was “−”. The “Behavior of gene caused by administration of chemical substance, Gene No. 6026” value ([1]; (C), Unigene Rn.167685, defined direction −, rat liver, oral once daily 28 days) was “−”, the “Behavior of gene caused by administration of chemical substance, Gene No. 154” value ([1]; (C), Unigene Rn.185941, defined direction −, rat liver, oral once daily 28 days) was “−” and the “Behavior of gene caused by administration of chemical substance, Gene No. 1993” value ([1]; (C), Unigene Rn.18728, defined direction −, rat liver, oral once daily 28 days) was “−”. For the same compound, the “Behavior of gene caused by administration of chemical substance, Gene No. 813” value ([1]; (C), Unigene Rn.201760, defined direction +, rat liver, oral once daily 28 days) was “−”, the “Behavior of gene caused by administration of chemical substance, Gene No. 2494” value ([1]; (C), Unigene Rn.23969, defined direction +, rat liver, oral once daily 28 days) was “−” and the “Behavior of gene caused by administration of chemical substance, Gene No. 2546” value ([1]; (C), Unigene Rn.24561, defined direction −, rat liver, oral once daily 28 days) was “−”. For the same compound, the “Behavior of gene caused by administration of chemical substance, Gene No. 3776” value ([1]; (C), Unigene Rn.43232, defined direction −, rat liver, oral once daily 28 days) was “−”, the “Behavior of gene caused by administration of chemical substance, Gene No. 3929” value ([1]; (C), Unigene Rn.4620, defined direction +, rat liver, oral once daily 28 days) was “−” and the “Behavior of gene caused by administration of chemical substance, Gene No. 1119” value ([1]; (C), Unigene Rn.9757, defined direction +, rat liver, oral once daily 28 days) was “−”. For the same compound, the “Behavior of gene caused by administration of chemical substance, Gene No. 6742” value ([1]; (C), Unigene Rn.9779, defined direction +, rat liver, oral once daily 28 days) was “−”, the “Behavior of gene caused by administration of chemical substance, Gene No. 5634” value ([1]; (C), Unigene Rn.9862, defined direction −, rat liver, oral once daily 28 days) was “−” and the “Behavior of gene caused by administration of chemical substance, Gene No. 5726” value ([1]; (D), Unigene Rn.9939, defined direction −, rat liver, oral once daily 28 days) was “+”. The Liver carcinogenicity (liver) was “Cr+” and the Carcinogenicity (rodent) was “C+”.
